The test system of experiment [1] is Rattus norvegicus. Briefly: Antiallodynic activity in Wistar albino rat chronic constriction injury-induced neuropathic pain model assessed as reversal of spontaneous pain response measured as withdrawal duration at 100 mg/kg, ip. The experiment is classed as functional. As to conditions: route intraperitoneal.
Experiment [2] concerns Rattus norvegicus. Briefly: Antiallodynic activity in Wistar albino rat chronic constriction injury-induced neuropathic pain model assessed as attenuation of cold allodynia measured as paw withdrawal duration at 100 mg/kg, ip. The experiment is classed as functional. As to conditions: route intraperitoneal.
The subject of experiment [3] is Rattus norvegicus. In words: Antiallodynic activity in Wistar albino rat chronic constriction injury-induced neuropathic pain model assessed as reversal of spontaneous pain response after 0.5 hrs at 100 mg/kg, ip. The experiment is classed as functional, organism-based. Also on record: dose 100 mg/kg.
Experiment [4] deals with Rattus norvegicus. In words: Antiallodynic activity in Wistar albino rat chronic constriction injury-induced neuropathic pain model assessed as attenuation of mechanical allodynia measured as paw withdrawal latency at 100 mg/kg, ip. The experiment is classed as functional. The following applies: route intraperitoneal.
Experiment [5] has as its system Rattus norvegicus. Briefly: Antihyperalgesic activity in Wistar albino rat chronic constriction injury-induced neuropathic pain model assessed as attenuation of mechanical pinkprick-induced hyperalgesia after 1.5 at 100 mg/kg, ip. The experiment is classed as functional, organism-based. Also on record: dose 100 mg/kg.
For experiment [6], the system named is Rattus norvegicus. In words: Antiallodynic activity in Wistar albino rat chronic constriction injury-induced neuropathic pain model assessed as reversal of spontaneous pain response up to 1 hr at 100 mg/kg, ip. Further details: dose 100 mg/kg. The experiment is classed as functional, organism-based.
Experiment [7] concerns Rattus norvegicus. In words: Antiallodynic activity in Wistar albino rat chronic constriction injury-induced neuropathic pain model assessed as attenuation of cold allodynia after 0.5 to 1 hr at 100 mg/kg, ip. Type of experiment: functional, organism-based. Also on record: dose 100 mg/kg.
Experiment [8] concerns Rattus norvegicus. Briefly: Antiallodynic activity in Wistar albino rat chronic constriction injury-induced neuropathic pain model assessed as attenuation of mechanical allodynia after 0.5 hrs at 100 mg/kg, ip. Further details: dose 100 mg/kg. The experiment is classed as functional, organism-based.
Experiment [9] deals with Rattus norvegicus. In words: Antiallodynic activity in Wistar albino rat chronic constriction injury-induced neuropathic pain model assessed as reversal of spontaneous pain response up to 2 hrs at 100 mg/kg, ip. Also on record: dose 100 mg/kg. The experiment is classed as functional, organism-based.
For experiment [10], the system named is Rattus norvegicus. Briefly: Antiallodynic activity in Wistar albino rat chronic constriction injury-induced neuropathic pain model assessed as attenuation of mechanical allodynia after 1.5 hrs at 100 mg/kg, ip. Type of experiment: functional, organism-based. Further details: dose 100 mg/kg.
Experiment [11] relates to Rattus norvegicus. Briefly: Antiallodynic activity in Wistar albino rat chronic constriction injury-induced neuropathic pain model assessed as attenuation of cold allodynia at 100 mg/kg, ip. The experiment is classed as functional, organism-based. Also on record: dose 100 mg/kg.
The subject of experiment [12] is Rattus norvegicus. Briefly: Antiallodynic activity in Wistar albino rat chronic constriction injury-induced neuropathic pain model assessed as reversal of spontaneous pain response at 100 mg/kg, ip. Type of experiment: functional, organism-based. Also on record: dose 100 mg/kg.
The test system of experiment [13] is Rattus norvegicus. Briefly: Antihyperalgesic activity in Wistar albino rat chronic constriction injury-induced neuropathic pain model assessed as attenuation of mechanical pinkprick-induced hyperalgesia after 0.5 to 1.5 at 100 mg/kg, ip. Type of experiment: functional, organism-based. Further details: dose 100 mg/kg.
For experiment [14], the system named is Rattus norvegicus. In words: Antiallodynic activity in Wistar albino rat chronic constriction injury-induced neuropathic pain model assessed as attenuation of cold allodynia after 1 to 2.5 hrs at 100 mg/kg, ip. The experiment is classed as functional, organism-based. Also on record: dose 100 mg/kg.
The subject of experiment [15] is Rattus norvegicus. Briefly: Antihyperalgesic activity in Wistar albino rat chronic constriction injury-induced neuropathic pain model assessed as attenuation of mechanical pinkprick-induced hyperalgesia up to 2.5 at 100 mg/kg, ip. Type of experiment: functional, organism-based. Also on record: dose 100 mg/kg.
The subject of experiment [16] is Rattus norvegicus. In words: Antiallodynic activity in Wistar albino rat chronic constriction injury-induced neuropathic pain model assessed as attenuation of mechanical allodynia at 100 mg/kg, ip. Type of experiment: functional, organism-based. Further details: dose 100 mg/kg.
In experiment [17] the test system is Rattus norvegicus. In words: Antiallodynic activity in Wistar albino rat chronic constriction injury-induced neuropathic pain model assessed as reversal of spontaneous pain response at 100 mg/kg, ip relative to gabapentin. The following applies: route intraperitoneal. The experiment is classed as functional.
The subject of experiment [18] is Rattus norvegicus. Briefly: Antiallodynic activity in Wistar albino rat chronic constriction injury-induced neuropathic pain model assessed as attenuation of cold allodynia at 100 mg/kg, ip relative to carbamazepine and lamotrigine. The experiment is classed as functional. As to conditions: route intraperitoneal.
Experiment [19] deals with Rattus norvegicus. Briefly: Antiallodynic activity in Wistar albino rat chronic constriction injury-induced neuropathic pain model assessed as reversal of spontaneous pain response after 1 hrs at 100 mg/kg, ip. The experiment is classed as functional, organism-based. Further details: dose 100 mg/kg.
The subject of experiment [20] is Rattus norvegicus. In words: Antihyperalgesic activity in Wistar albino rat chronic constriction injury-induced neuropathic pain model assessed as attenuation of mechanical pinkprick-induced hyperalgesia after 0.5 to 1 at 100 mg/kg, ip. Type of experiment: functional, organism-based. Also on record: dose 100 mg/kg.

Active and inactive are the calls of the source. The rule behind the calls is not given here.

Experimental findings from ChEMBL document CHEMBL1795292, “Discovery of molecules for the treatment of neuropathic pain: synthesis, antiallodynic and antihyperalgesic activities of 5-(4-nitrophenyl)furoic-2-acid hydrazones” (2011) are described below.

Regarding `O=C(N/N=C/c1ccccc1)c1ccc(-c2ccc([N+](=O)[O-])cc2)o1`, the Time in the experiment on Rattus norvegicus [1] stood at 2.5 h; in the experiment with Rattus norvegicus [2] it was 2.5 h; in the experiment on Rattus norvegicus [4] it was 2 h. Besides, the outcome in the experiment on Rattus norvegicus [3] was Active. Besides, the result in the experiment with Rattus norvegicus [5] was inactive.

As to `NC(=O)N1c2ccccc2C=Cc2ccccc21` [CARBAMAZEPINE], the result in the experiment on Rattus norvegicus [6] and in the experiment with Rattus norvegicus [7] was Active. The Time with Rattus norvegicus [4] amounted to 2.5 h.

As to `Nc1nnc(-c2cccc(Cl)c2Cl)c(N)n1`, the result in the experiment with Rattus norvegicus [8] and in the experiment with Rattus norvegicus [9] was Active.

For the molecule `COc1cc(/C=N/NC(=O)c2ccc(-c3ccc([N+](=O)[O-])cc3)o2)ccc1O`, the outcome in the experiment on Rattus norvegicus [10] and with Rattus norvegicus [3] was Active. The Time in the experiment on Rattus norvegicus [1] and in the experiment on Rattus norvegicus [4] was 2.5 h each time. Moreover, the outcome in the experiment with Rattus norvegicus [11] and in the experiment on Rattus norvegicus [5] was inactive.

Consider `C/C(=N\NC(=O)c1ccc(-c2ccc([N+](=O)[O-])cc2)o1)c1ccc(C)cc1`, for which the result in the experiment on Rattus norvegicus [12] and with Rattus norvegicus [11] was inactive. The outcome in the experiment on Rattus norvegicus [8] and in the experiment with Rattus norvegicus [13] was Active. Besides, in the experiment on Rattus norvegicus [4], the Time is 2.5 h.

On to `NCC1(CC(=O)O)CCCCC1` [GABAPENTIN], for which the Time with Rattus norvegicus [1] came out at 1 h; in the experiment on Rattus norvegicus [4], 2.5 h. Also, the outcome in the experiment on Rattus norvegicus [14] was Active.

As to `COc1ccc(/C=N/NC(=O)c2ccc(-c3ccc([N+](=O)[O-])cc3)o2)cc1`, the Time in the experiment on Rattus norvegicus [1] and in the experiment with Rattus norvegicus [2] was 2.5 h throughout. Moreover, the result in the experiment with Rattus norvegicus [15] and in the experiment on Rattus norvegicus [3] was Active. The result in the experiment with Rattus norvegicus [16] was inactive. For the same molecule, the “fold change (FC)” value in the experiment with Rattus norvegicus [17] was 5.

With `Cc1ccc(/C=N/NC(=O)c2ccc(-c3ccc([N+](=O)[O-])cc3)o2)cc1`, the outcome in the experiment on Rattus norvegicus [12], in the experiment with Rattus norvegicus [11] and in the experiment with Rattus norvegicus [16] was inactive. The outcome in the experiment on Rattus norvegicus [5] was Active.

With `C/C(=N\NC(=O)c1ccc(-c2ccc([N+](=O)[O-])cc2)o1)c1ccc(Br)cc1`, the outcome with Rattus norvegicus [12] and in the experiment with Rattus norvegicus [5] was inactive. Further, the result in the experiment with Rattus norvegicus [8] was Active. Besides, the Time in the experiment on Rattus norvegicus [2] and in the experiment with Rattus norvegicus [4] was 2.5 h in each case.

Consider `O=C(N/N=C/c1ccc([N+](=O)[O-])o1)c1ccc(-c2ccc([N+](=O)[O-])cc2)o1`, for which the Time in the experiment with Rattus norvegicus [1], in the experiment on Rattus norvegicus [2] and in the experiment on Rattus norvegicus [4] was 2.5 h in each case. For the same molecule, the outcome in the experiment on Rattus norvegicus [3] and with Rattus norvegicus [5] was Active.

Take `O=C(N/N=C/c1ccc(Br)cc1)c1ccc(-c2ccc([N+](=O)[O-])cc2)o1`: the “fold change (FC)” value with Rattus norvegicus [18] came out at 6. Also, the Time with Rattus norvegicus [1] and in the experiment with Rattus norvegicus [2] was 2.5 h each time. Also, the outcome with Rattus norvegicus [15] and in the experiment with Rattus norvegicus [19] was Active. Moreover, in the experiment with Rattus norvegicus [16], the result was inactive.

In the case of `C/C(=N\NC(=O)c1ccc(-c2ccc([N+](=O)[O-])cc2)o1)c1ccccc1`, the Time with Rattus norvegicus [1], in the experiment with Rattus norvegicus [2] and in the experiment with Rattus norvegicus [4] was 2.5 h in each case. The result in the experiment with Rattus norvegicus [8], with Rattus norvegicus [3] and with Rattus norvegicus [20] was Active.

On to `C/C(=N\NC(=O)c1ccc(-c2ccc([N+](=O)[O-])cc2)o1)c1ccc(F)cc1`, for which the result with Rattus norvegicus [12], in the experiment on Rattus norvegicus [11], in the experiment on Rattus norvegicus [16] and with Rattus norvegicus [5] was inactive.
